Patent publication US20070010671A1, “Novel quinazoline derivatives and methods of treatment related to the use thereof” (priority 2003, published 2007)

These compounds were tested against MCH receptor (Homo sapiens, UniProt Q99705) (assay: High throughput functional screening FLIPR/FDSS6000: inhibition of MCH-evoked intracellular Ca2+ changes). Settings: class by percent of control at 10^-7 M or IC50.
Format: cell-based
In short: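 Antagonism is measured as inhibition of the intracellular calcium rise triggered by 50 nM MCH in cells bearing a constitutively active, non-endogenous form of the receptor. Cells are dye-loaded with Fluo4-AM and exposed to compound for 3 min at 37° C before agonist addition.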

Compound | class
CN(C)c1nc(N[C@H]2CC[C@@H](CNC(=O)Nc3ccc(SC(F)(F)F)cc3)CC2)nc2ccccc12 [compound 537] | 3 (Class 3: The value of percent of control at 10^−7 M was more than 60% or the value of IC50 was more than 200 nM.)
Cc1cc(NC(=O)NC[C@H]2CC[C@@H](Nc3nc(N(C)C)c4ccccc4n3)CC2)c([N+](=O)[O-])cc1C [compound 538] | 2 (Class 2: The value of percent of control at 10^−7 M was from 40% to 60% or the value of IC50 was from 50 nM to 200 nM.)
CN(C)c1nc(N[C@H]2CC[C@@H](CNC(=O)Nc3ccc(OCc4ccccc4)cc3)CC2)nc2ccccc12 [compound 539] | 3 (Class 3: The value of percent of control at 10^−7 M was more than 60% or the value of IC50 was more than 200 nM.)
CN(C)c1nc(N[C@H]2CC[C@@H](CNC(=O)Nc3ccc(Cc4ccccc4)cc3)CC2)nc2ccccc12 [compound 540] | 3 (Class 3: The value of percent of control at 10^−7 M was more than 60% or the value of IC50 was more than 200 nM.)
CN(C)c1nc(N[C@H]2CC[C@@H](CNC(=O)Nc3ccc(Br)cc3C(F)(F)F)CC2)nc2ccccc12 [compound 541, N-[4-bromo-2-(trifluoromethyl)phenyl]-N′-[(cis-4-{[4-(dimethylamino)quinazolin-2-yl]amino}cyclohexyl)methyl]urea] | 2 (Class 2: The value of percent of control at 10^−7 M was from 40% to 60% or the value of IC50 was from 50 nM to 200 nM.)
CN(C)c1nc(N[C@H]2CC[C@@H](CNC(=O)Nc3c(F)cc(Br)cc3F)CC2)nc2ccccc12 [compound 542, N-(4-bromo-2,6-difluorophenyl)-N′-[(cis-4-{[4-(dimethylamino)quinazolin-2-yl]amino}cyclohexyl)methyl]urea] | 1 (Class 1: The value of percent of control at 10^−7 M was less than 40% or the value of IC50 was less than 50 nM.)
CN(C)c1nc(N[C@H]2CC[C@@H](CNC(=O)Nc3ccc(Br)cc3Cl)CC2)nc2ccccc12 [compound 543] | 3 (Class 3: The value of percent of control at 10^−7 M was more than 60% or the value of IC50 was more than 200 nM.)
CN(C)c1nc(N[C@H]2CC[C@@H](CNC(=O)NCc3ccc(Br)cc3)CC2)nc2ccccc12 [compound 544] | 3 (Class 3: The value of percent of control at 10^−7 M was more than 60% or the value of IC50 was more than 200 nM.)
CN(C)c1nc(N[C@H]2CC[C@@H](CNC(=O)Nc3ccc(Cl)cc3C(F)(F)F)CC2)nc2ccccc12 [compound 545, N-[4-chloro-2-(trifluoromethyl)phenyl]-N′-[(cis-4-{[4-(dimethylamino)quinazolin-2-yl]amino}cyclohexyl)methyl]urea] | 1 (Class 1: The value of percent of control at 10^−7 M was less than 40% or the value of IC50 was less than 50 nM.)
Cc1cc(Cl)ccc1NC(=O)NC[C@H]1CC[C@@H](Nc2nc(N(C)C)c3ccccc3n2)CC1 [compound 546] | 2 (Class 2: The value of percent of control at 10^−7 M was from 40% to 60% or the value of IC50 was from 50 nM to 200 nM.)
CN(C)c1nc(N[C@H]2CC[C@@H](CNC(=O)Nc3ccc(Cl)cc3[N+](=O)[O-])CC2)nc2ccccc12 [compound 547] | 3 (Class 3: The value of percent of control at 10^−7 M was more than 60% or the value of IC50 was more than 200 nM.)
CN(C)c1nc(N[C@H]2CC[C@@H](CNC(=O)Nc3ccc(Cl)c(C(F)(F)F)c3)CC2)nc2ccccc12 [compound 548] | 3 (Class 3: The value of percent of control at 10^−7 M was more than 60% or the value of IC50 was more than 200 nM.)
CN(C)c1nc(N[C@H]2CC[C@@H](CNC(=O)Nc3ccc(C#N)cc3)CC2)nc2ccccc12 [compound 549, N-(4-cyanophenyl)-N′-[(cis-4-{[4-(dimethylamino)quinazolin-2-yl]amino}cyclohexyl)methyl]urea] | 1 (Class 1: The value of percent of control at 10^−7 M was less than 40% or the value of IC50 was less than 50 nM.)
CCOc1ccc(NC(=O)NC[C@H]2CC[C@@H](Nc3nc(N(C)C)c4ccccc4n3)CC2)cc1 [compound 550] | 3 (Class 3: The value of percent of control at 10^−7 M was more than 60% or the value of IC50 was more than 200 nM.)
CN(C)c1nc(N[C@H]2CC[C@@H](CNC(=O)Nc3ccc(F)cc3[N+](=O)[O-])CC2)nc2ccccc12 [compound 551, N-[(cis-4-{[4-(dimethylamino)quinazolin-2-yl]amino}cyclohexyl)methyl]-N′-(4-fluoro-2-nitrophenyl)urea] | 2 (Class 2: The value of percent of control at 10^−7 M was from 40% to 60% or the value of IC50 was from 50 nM to 200 nM.)
CN(C)c1nc(N[C@H]2CC[C@@H](CNC(=O)Nc3ccc(F)c(C(F)(F)F)c3)CC2)nc2ccccc12 [compound 552] | 3 (Class 3: The value of percent of control at 10^−7 M was more than 60% or the value of IC50 was more than 200 nM.)
CN(C)c1nc(N[C@H]2CC[C@@H](CNC(=O)NCc3ccc(F)cc3)CC2)nc2ccccc12 [compound 553, N-[(cis-4-{[4-(dimethylamino)quinazolin-2-yl]amino}cyclohexyl)methyl]-N′-(4-fluorobenzyl)urea] | 2 (Class 2: The value of percent of control at 10^−7 M was from 40% to 60% or the value of IC50 was from 50 nM to 200 nM.)
CCCCCCCOc1ccc(NC(=O)NC[C@H]2CC[C@@H](Nc3nc(N(C)C)c4ccccc4n3)CC2)cc1 [compound 554] | 3 (Class 3: The value of percent of control at 10^−7 M was more than 60% or the value of IC50 was more than 200 nM.)

Compound | class
CN(C)c1nc(N[C@H]2CC[C@@H](CNC(=O)Nc3ccc(I)cc3)CC2)nc2ccccc12 [compound 555, N-[(cis-4-{[4-(dimethylamino)quinazolin-2-yl]amino}cyclohexyl)methyl]-N′-(4-iodophenyl)urea] | 2 (Class 2: The value of percent of control at 10^−7 M was from 40% to 60% or the value of IC50 was from 50 nM to 200 nM.)
COc1ccc(NC(=O)NC[C@H]2CC[C@@H](Nc3nc(N(C)C)c4ccccc4n3)CC2)c(C)c1 [compound 556] | 2 (Class 2: The value of percent of control at 10^−7 M was from 40% to 60% or the value of IC50 was from 50 nM to 200 nM.)
COc1ccc(NC(=O)NC[C@H]2CC[C@@H](Nc3nc(N(C)C)c4ccccc4n3)CC2)c([N+](=O)[O-])c1 [compound 557] | 3 (Class 3: The value of percent of control at 10^−7 M was more than 60% or the value of IC50 was more than 200 nM.)
Cc1ccc(NC(=O)NC[C@H]2CC[C@@H](Nc3nc(N(C)C)c4ccccc4n3)CC2)cc1[N+](=O)[O-] [compound 558, N-[(cis-4-{[4-(dimethylamino)quinazolin-2-yl]amino}cyclohexyl)methyl]-N′-(4-methyl-3-nitrophenyl)urea] | 2 (Class 2: The value of percent of control at 10^−7 M was from 40% to 60% or the value of IC50 was from 50 nM to 200 nM.)
Cc1ccc(CNC(=O)NC[C@H]2CC[C@@H](Nc3nc(N(C)C)c4ccccc4n3)CC2)cc1 [compound 559] | 3 (Class 3: The value of percent of control at 10^−7 M was more than 60% or the value of IC50 was more than 200 nM.)
CCCCOc1ccc(NC(=O)NC[C@H]2CC[C@@H](Nc3nc(N(C)C)c4ccccc4n3)CC2)cc1 [compound 560] | 3 (Class 3: The value of percent of control at 10^−7 M was more than 60% or the value of IC50 was more than 200 nM.)
CCCCc1ccc(NC(=O)NC[C@H]2CC[C@@H](Nc3nc(N(C)C)c4ccccc4n3)CC2)cc1 [compound 561] | 3 (Class 3: The value of percent of control at 10^−7 M was more than 60% or the value of IC50 was more than 200 nM.)
CN(C)c1nc(N[C@H]2CC[C@@H](CNC(=O)Nc3ccc(-c4ccccc4)cc3)CC2)nc2ccccc12 [compound 562] | 3 (Class 3: The value of percent of control at 10^−7 M was more than 60% or the value of IC50 was more than 200 nM.)
COc1cc(OC)c(NC(=O)NC[C@H]2CC[C@@H](Nc3nc(N(C)C)c4ccccc4n3)CC2)cc1Cl [compound 563] | 3 (Class 3: The value of percent of control at 10^−7 M was more than 60% or the value of IC50 was more than 200 nM.)
COc1ccc(Cl)cc1NC(=O)NC[C@H]1CC[C@@H](Nc2nc(N(C)C)c3ccccc3n2)CC1 [compound 564] | 3 (Class 3: The value of percent of control at 10^−7 M was more than 60% or the value of IC50 was more than 200 nM.)
Cc1ccc(Cl)cc1NC(=O)NC[C@H]1CC[C@@H](Nc2nc(N(C)C)c3ccccc3n2)CC1 [compound 565] | 2 (Class 2: The value of percent of control at 10^−7 M was from 40% to 60% or the value of IC50 was from 50 nM to 200 nM.)
CN(C)c1nc(N[C@H]2CC[C@@H](CNC(=O)Nc3cc(Cl)ccc3[N+](=O)[O-])CC2)nc2ccccc12 [compound 566] | 3 (Class 3: The value of percent of control at 10^−7 M was more than 60% or the value of IC50 was more than 200 nM.)
Cc1ccc(F)cc1NC(=O)NC[C@H]1CC[C@@H](Nc2nc(N(C)C)c3ccccc3n2)CC1 [compound 567, N-[(cis-4-{[4-(dimethylamino)quinazolin-2-yl]amino}cyclohexyl)methyl]-N′-(5-fluoro-2-methylphenyl)urea] | 2 (Class 2: The value of percent of control at 10^−7 M was from 40% to 60% or the value of IC50 was from 50 nM to 200 nM.)
CN(C)c1nc(N[C@H]2CC[C@@H](CNC(=O)Nc3ccc4c(c3)CCC4)CC2)nc2ccccc12 [compound 568] | 3 (Class 3: The value of percent of control at 10^−7 M was more than 60% or the value of IC50 was more than 200 nM.)
CN(C)c1nc(N[C@H]2CC[C@@H](CNC(=O)Nc3ccc4c(c3)Cc3ccccc3-4)CC2)nc2ccccc12 [compound 569] | 3 (Class 3: The value of percent of control at 10^−7 M was more than 60% or the value of IC50 was more than 200 nM.)
CN(C)c1nc(N[C@H]2CC[C@@H](CNC(=O)NC3c4ccccc4-c4ccccc43)CC2)nc2ccccc12 [compound 570] | 3 (Class 3: The value of percent of control at 10^−7 M was more than 60% or the value of IC50 was more than 200 nM.)
CN(C)c1nc(N[C@H]2CC[C@@H](CNC(=O)NCCc3ccccc3)CC2)nc2ccccc12 [compound 571] | 3 (Class 3: The value of percent of control at 10^−7 M was more than 60% or the value of IC50 was more than 200 nM.)
